Reference: US20140107109A1, “AMINO-DIHYDROTHIAZINE AND AMINO-DIOXIDO DIHYDROTHIAZINE COMPOUNDS AS BETA-SECRETASE ANTAGONISTS AND METHODS OF USE” (Amgen Inc., priority 2012, published 2014)

Legend:
[1] = system: Aβ40 in conditioned medium of cells stably expressing Amyloid Precursor Protein (APP); experiment: In vitro BACE cell-based assay (HEK cell assay), Aβ40 sandwich ELISA; conditions: Homo sapiens, HEK293; average IC50, HEK cell assay
How it was run: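 APP-stably expressing cells (40K/well, grown 24 h in DMEM/10% FBS) were treated 24 h with compounds in 10-point dose response starting at 100 μM or 10 μM, 0.1% DMSO final. Secreted Aβ40 was measured by sandwich ELISA (pAb40 capture, biotinylated 6E10 detection, europium time-resolved fluorescence); IC50 from percent inhibition.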

Cathepsin D (Cat D) = target: T1, Cathepsin D (Cat D) (Homo sapiens, UniProt P07339); experiment: In vitro enzymatic Cathepsin D (Cat D) FRET assay; assay type: biochemical; conditions: read-out: CatD IC50
T1 construct: Recombinant Cat D was expressed in CHO cells; made in house; host or cells: CHO cells
T1 sequence (P07339 65-412, species assumed): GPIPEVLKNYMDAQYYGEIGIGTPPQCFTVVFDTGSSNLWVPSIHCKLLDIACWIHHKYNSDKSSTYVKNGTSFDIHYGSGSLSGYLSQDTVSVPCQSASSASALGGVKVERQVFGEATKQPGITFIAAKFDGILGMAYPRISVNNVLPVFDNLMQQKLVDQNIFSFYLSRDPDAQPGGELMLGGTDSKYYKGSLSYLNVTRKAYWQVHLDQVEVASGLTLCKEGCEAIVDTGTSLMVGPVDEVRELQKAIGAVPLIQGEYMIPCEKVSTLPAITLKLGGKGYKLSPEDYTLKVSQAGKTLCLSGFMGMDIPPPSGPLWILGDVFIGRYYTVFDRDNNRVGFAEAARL
How it was run: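 Recombinant Cat D expressed in CHO cells, used at 9 nM and pre-incubated one hour with serially diluted inhibitor in DMSO. Peptide substrate carries a fluorophore and quencher flanking the cleavage site; reaction stopped with Tris buffer raising pH to neutrality, then fluorescence read.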

[2] = target: Beta Secretase enzyme (BACE1) (Homo sapiens, UniProt P56817); experiment: In vitro enzymatic BACE FRET assay; assay type: biochemical; conditions: average IC50, enzyme assay; read-out: BACE1 FRET assay IC50
Sequence of Beta Secretase enzyme (BACE1) (P56817 46-501): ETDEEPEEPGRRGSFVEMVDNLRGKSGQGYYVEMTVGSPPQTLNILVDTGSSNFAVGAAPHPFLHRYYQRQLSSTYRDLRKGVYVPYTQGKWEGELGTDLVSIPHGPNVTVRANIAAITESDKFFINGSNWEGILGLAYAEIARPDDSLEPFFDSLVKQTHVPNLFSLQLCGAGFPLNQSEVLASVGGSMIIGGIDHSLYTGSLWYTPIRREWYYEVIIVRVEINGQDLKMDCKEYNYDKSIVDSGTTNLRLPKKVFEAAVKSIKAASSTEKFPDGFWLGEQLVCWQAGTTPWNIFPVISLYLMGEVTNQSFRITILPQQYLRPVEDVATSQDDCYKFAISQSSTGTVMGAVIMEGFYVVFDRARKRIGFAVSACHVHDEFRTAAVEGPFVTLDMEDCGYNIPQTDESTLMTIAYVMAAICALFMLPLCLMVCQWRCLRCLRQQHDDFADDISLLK
How it was run: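 BACE1 cleavage of a 50 nM fluorophore/quencher peptide FRET substrate ran for one hour in 0.05 M acetate pH 4.2, 10% DMSO, 100 uM genapol. Tris buffer raised pH to neutrality to stop the reaction before fluorescence was read (excitation 488 nm, […]).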

Row | Compound | IC50 [1] [µM] | IC50 (Cathepsin D (Cat D)) [µM] | IC50 [2] [µM]
1 | C[C@]1(F)C(N)=N[C@](C)(c2cc(NC(=O)c3cnc(C(F)(F)F)cn3)ccc2F)CS1(=O)=O [Example 323, N-(3-((3R,6R)-5-amino-6-fluoro-3,6-dimethyl-1,1-dioxido-3,6-dihydro-2H-1,4-thiazin-3-yl)-4-fluorophenyl)-5-(trifluoromethyl)-2-pyrazinecarboxamide] | 0.288 | 931 | 0.00386
2 | Cc1cc(C#N)cnc1C(=O)Nc1ccc(F)c([C@]2(C)CS(=O)(=O)[C@@](C)(F)C(N)=N2)c1 [Example 324, N-(3-((3R,6R)-5-amino-6-fluoro-3,6-dimethyl-1,1-dioxido-3,6-dihydro-2H-1,4-thiazin-3-yl)-4-fluorophenyl)-5-cyano-3-methyl-2-pyridinecarboxamide] | 0.0651 | 1370 | 0.00102
3 | C[C@]1(F)C(N)=N[C@](C)(c2cc(NC(=O)c3cnc(OCC(F)(F)F)cn3)ccc2F)CS1(=O)=O [Example 325, N-(3-((3R,6R)-5-amino-6-fluoro-3,6-dimethyl-1,1-dioxido-3,6-dihydro-2H-1,4-thiazin-3-yl)-4-fluorophenyl)-5-(2,2,2-trifluoroethoxy)-2-pyrazinecarboxamide] | 0.0445 | 1260 | 0.00042
4 | C[C@]1(F)C(N)=N[C@](C)(c2cc(NC(=O)c3ncc(C(F)F)cc3Cl)ccc2F)CS1(=O)=O [Example 326, N-(3-((3R,6R)-5-amino-6-fluoro-3,6-dimethyl-1,1-dioxido-3,6-dihydro-2H-1,4-thiazin-3-yl)-4-fluorophenyl)-3-chloro-5-(difluoromethyl)-2-pyridinecarboxamide] | 0.0597 | 979 | 0.00277
5 | C[C@]1(F)C(N)=N[C@](C)(c2cc(NC(=O)c3ncc(C#N)cc3Cl)ccc2F)CS1(=O)=O [Example 327, N-(3-((3R,6R)-5-amino-6-fluoro-3,6-dimethyl-1,1-dioxido-3,6-dihydro-2H-1,4-thiazin-3-yl)-4-fluorophenyl)-3-chloro-5-cyano-2-pyridinecarboxamide] | 0.0204 | > 400 | 0.00074
6 | COCc1cc(Cl)cnc1C(=O)Nc1ccc(F)c([C@]2(C)CS(=O)(=O)[C@@](C)(F)C(N)=N2)c1 [Example 328, N-(3-((3R,6R)-5-amino-6-fluoro-3,6-dimethyl-1,1-dioxido-3,6-dihydro-2H-1,4-thiazin-3-yl)-4-fluorophenyl)-5-chloro-3-(methoxymethyl)-2-pyridinecarboxamide] | 0.0928 | 598 | 0.00051
7 | CC1(C)C(N)=N[C@](C)(c2cc(NC(=O)c3ncc(Cl)cc3F)ccc2F)C(F)S1(=O)=O (stereo partly drawn) [Example 329, N-(3-((3R)-5-amino-2-fluoro-3,6,6-trimethyl-1,1-dioxido-3,6-dihydro-2H-1,4-thiazin-3-yl)-4-fluorophenyl)-5-chloro-3-fluoro-2-pyridinecarboxamide] | 0.0058 | > 400 | 0.00047
8 | Cc1cc(OC(F)F)cnc1C(=O)Nc1ccc(F)c([C@@]2(C)N=C(N)C(C)(C)S(=O)(=O)C2F)c1 (stereo partly drawn) [Example 330, N-(3-((3R)-5-amino-2-fluoro-3,6,6-trimethyl-1,1-dioxido-3,6-dihydro-2H-1,4-thiazin-3-yl)-4-fluorophenyl)-5-(difluoromethoxy)-3-methyl-2-pyridinecarboxamide] | 0.0041 | 136 | 0.00075
9 | Cc1cc(Cl)cnc1C(=O)Nc1ccc(F)c([C@@]2(C)N=C(N)C(C)(C)S(=O)(=O)C2F)c1 (stereo partly drawn) [Example 331, N-(3-((3R)-5-amino-2-fluoro-3,6,6-trimethyl-1,1-dioxido-3,6-dihydro-2H-1,4-thiazin-3-yl)-4-fluorophenyl)-5-chloro-3-methyl-2-pyridinecarboxamide] | 0.0048 | 188 | 0.0003
10 | CC#CCOc1cnc(C(=O)Nc2ccc(F)c([C@@]3(C)N=C(N)C(C)(C)S(=O)(=O)C3F)c2)cn1 (stereo partly drawn) [Example 332, N-(3-((3R)-5-amino-2-fluoro-3,6,6-trimethyl-1,1-dioxido-3,6-dihydro-2H-1,4-thiazin-3-yl)-4-fluorophenyl)-5-(2-butyn-1-yloxy)-2-pyrazinecarboxamide] | 0.001 | 44.9 | 0.00023
11 | CC1(C)C(N)=N[C@](C)(c2cc(NC(=O)c3cnc(OCC(F)(F)F)cn3)ccc2F)C(F)S1(=O)=O (stereo partly drawn) [Example 333, N-(3-((3R)-5-amino-2-fluoro-3,6,6-trimethyl-1,1-dioxido-3,6-dihydro-2H-1,4-thiazin-3-yl)-4-fluorophenyl)-5-(2,2,2-trifluoroethoxy)-2-pyrazinecarboxamide] | 0.016 | 190 | 0.0015
12 | CC1(C)C(N)=N[C@](C)(c2cc(NC(=O)c3ccc(C(F)F)cn3)ccc2F)C(F)S1(=O)=O (stereo partly drawn) [Example 334, N-(3-((3R)-5-amino-2-fluoro-3,6,6-trimethyl-1,1-dioxido-3,6-dihydro-2H-1,4-thiazin-3-yl)-4-fluorophenyl)-5-(difluoromethyl)-2-pyridinecarboxamide] | 0.0055 | 307 | 0.0024
13 | COCc1cc(Cl)cnc1C(=O)Nc1ccc(F)c([C@@]2(C)N=C(N)C(C)(C)S(=O)(=O)C2F)c1 (stereo partly drawn) [Example 335, N-(3-((3R)-5-amino-2-fluoro-3,6,6-trimethyl-1,1-dioxido-3,6-dihydro-2H-1,4-thiazin-3-yl)-4-fluorophenyl)-5-chloro-3-(methoxymethyl)-2-pyridinecarboxamide] | 0.0068 | 311 | 0.00056
14 | COc1cnc(C(=O)Nc2ccc(F)c([C@@]3(C)N=C(N)C(C)(C)S(=O)(=O)C3F)c2)c(Cl)c1 (stereo partly drawn) [Example 336, N-(3-((3R)-5-amino-2-fluoro-3,6,6-trimethyl-1,1-dioxido-3,6-dihydro-2H-1,4-thiazin-3-yl)-4-fluorophenyl)-3-chloro-5-methoxy-2-pyridinecarboxamide] | 0.0053 | 533 | 0.0014
15 | COc1cnc(C(=O)Nc2ccc(F)c([C@@]3(C)N=C(N)C(C)(C)S(=O)(=O)C3F)c2)c(C)c1 (stereo partly drawn) [Example 337, N-(3-((3R)-5-amino-2-fluoro-3,6,6-trimethyl-1,1-dioxido-3,6-dihydro-2H-1,4-thiazin-3-yl)-4-fluorophenyl)-5-methoxy-3-methyl-2-pyridinecarboxamide] | 0.0097 | 233 | 0.00313
16 | CC1[C@@](C)(c2cc(NC(=O)c3ccc(Cl)cn3)ccc2F)N=C(N)[C@](C)(F)S1(=O)=O (stereo partly drawn) [Example 339, N-(3-((3R,6R)-5-amino-6-fluoro-2,3,6-trimethyl-1,1-dioxido-3,6-dihydro-2H-1,4-thiazin-3-yl)-4-fluorophenyl)-5-chloro-2-pyridinecarboxamide] | 0.196 | 109 | 0.0181
17 | Cc1cc(Cl)cnc1C(=O)Nc1ccc(F)c([C@@]2(C)N=C(N)C(C)(C)S(=O)(=O)C23CC3)c1 [Example 340, N-(3-((8R)-6-amino-5,5,8-trimethyl-4,4-dioxido-4-thia-7-azaspiro[2.5]oct-6-en-8-yl)-4-fluorophenyl)-5-chloro-3-methyl-2-pyridinecarboxamide] | 0.0044 | 20 | 0.0051
18 | Cc1cc(OC(F)F)cnc1C(=O)Nc1ccc(F)c([C@@]2(C)N=C(N)C(C)(C)S(=O)(=O)C23CC3)c1 [Example 341, N-(3-((8R)-6-amino-5,5,8-trimethyl-4,4-dioxido-4-thia-7-azaspiro[2.5]oct-6-en-8-yl)-4-fluorophenyl)-5-(difluoromethoxy)-3-methyl-2-pyridinecarboxamide] | 0.0024 | 9.4 | 0.00599
19 | CC1(C)C(N)=N[C@](C)(c2cc(NC(=O)c3ccc(C(F)(F)F)cn3)ccc2F)CS1(=O)=O [Example 342, N-(3-((3R)-5-amino-3,6,6-trimethyl-1,1-dioxido-3,6-dihydro-2H-1,4-thiazin-3-yl)-4-fluorophenyl)-5-(trifluoromethyl)-2-pyridinecarboxamide] | 0.0007 | 113 | 0.00061
20 | CC1(C)C(N)=N[C@](C)(c2cc(NC(=O)c3cc4ccccc4cn3)ccc2F)CS1(=O)=O [Example 343, N-(3-((3R)-5-amino-3,6,6-trimethyl-1,1-dioxido-3,6-dihydro-2H-1,4-thiazin-3-yl)-4-fluorophenyl)-3-isoquinolinecarboxamide] | 0.0107 | 234 | 0.00511
21 | CC1(C)C(N)=N[C@](C)(c2cc(NC(=O)c3cnc(OC(F)F)cn3)ccc2F)CS1(=O)=O [Example 344, N-(3-((3R)-5-amino-3,6,6-trimethyl-1,1-dioxido-3,6-dihydro-2H-1,4-thiazin-3-yl)-4-fluorophenyl)-5-(difluoromethoxy)-2-pyrazinecarboxamide] | 0.0004 | 388 | 0.00053
22 | COc1cc(Cl)ccc1C(=O)Nc1ccc(F)c([C@]2(C)CS(=O)(=O)C(C)(C)C(N)=N2)c1 [Example 345, N-(3-((3R)-5-amino-3,6,6-trimethyl-1,1-dioxido-3,6-dihydro-2H-1,4-thiazin-3-yl)-4-fluorophenyl)-4-chloro-2-methoxybenzamide] | 0.0713 | 75.6 | 0.0313
